pIC50: −log10 of the molar value. Where only a bound is given, the exact number is not on record here.

The term pIC50 denotes the negative decadic logarithm of the IC50, by convention in mol/L.

Sequence of EGFR (murine) (P00533 whole entry, looked up): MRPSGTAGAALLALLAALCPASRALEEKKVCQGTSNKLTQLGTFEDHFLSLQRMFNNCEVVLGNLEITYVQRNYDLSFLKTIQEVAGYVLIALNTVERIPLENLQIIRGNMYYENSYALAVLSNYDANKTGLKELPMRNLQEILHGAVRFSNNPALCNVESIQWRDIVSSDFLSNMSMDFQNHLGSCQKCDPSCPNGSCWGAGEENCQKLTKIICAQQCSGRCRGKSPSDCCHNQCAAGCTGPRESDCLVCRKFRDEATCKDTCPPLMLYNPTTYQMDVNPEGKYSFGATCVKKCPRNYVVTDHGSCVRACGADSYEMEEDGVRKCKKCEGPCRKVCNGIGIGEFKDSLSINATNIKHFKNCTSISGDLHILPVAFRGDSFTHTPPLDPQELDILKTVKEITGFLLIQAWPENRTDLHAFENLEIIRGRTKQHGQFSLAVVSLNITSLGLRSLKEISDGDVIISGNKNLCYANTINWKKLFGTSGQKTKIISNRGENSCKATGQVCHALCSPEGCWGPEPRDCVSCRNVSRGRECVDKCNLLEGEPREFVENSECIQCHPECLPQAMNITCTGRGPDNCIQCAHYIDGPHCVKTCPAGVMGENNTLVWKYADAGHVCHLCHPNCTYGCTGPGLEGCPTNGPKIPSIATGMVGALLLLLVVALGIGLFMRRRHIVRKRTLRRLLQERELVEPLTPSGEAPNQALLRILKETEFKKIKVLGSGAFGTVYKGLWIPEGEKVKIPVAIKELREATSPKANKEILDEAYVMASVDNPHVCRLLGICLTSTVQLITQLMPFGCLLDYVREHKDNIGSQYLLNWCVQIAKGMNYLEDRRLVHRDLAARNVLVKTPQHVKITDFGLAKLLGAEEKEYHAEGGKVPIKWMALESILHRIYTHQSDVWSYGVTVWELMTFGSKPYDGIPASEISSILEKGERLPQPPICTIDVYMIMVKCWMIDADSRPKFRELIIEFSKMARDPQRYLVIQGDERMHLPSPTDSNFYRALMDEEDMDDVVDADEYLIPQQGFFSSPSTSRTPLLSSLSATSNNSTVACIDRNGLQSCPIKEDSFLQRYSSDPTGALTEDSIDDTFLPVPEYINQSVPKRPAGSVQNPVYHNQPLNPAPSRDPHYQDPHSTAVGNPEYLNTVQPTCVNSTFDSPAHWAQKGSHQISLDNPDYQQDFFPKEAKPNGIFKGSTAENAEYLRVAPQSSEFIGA

The first assay addresses CDK2 (human) (UniProt P24941). Put plainly: Enzyme Assay.
Details: not given
For `CCN(CC)CCCNC(=O)c1c(C)[nH]c(/C=C2\C(=O)Nc3ccc(Br)cc32)c1-c1ccccc1`, the pIC50 is < 4.70.

In another assay the target is EGFR (human) (UniProt P00533).
Sequence of EGFR (human) (P00533 whole entry, looked up): as above
Experiment: not given
Details: not given
Take `CCN(CC)CCCNC(=O)c1[nH]c(/C=C2\C(=O)Nc3ccc(OC)cc32)cc1C`: the negative-log IC50 (pIC50) is < 4.00. As for `CNS(=O)(=O)c1ccc2c(c1)/C(=C/c1[nH]cc(C(=O)NCC(=O)O)c1C)C(=O)N2`, the negative logarithm of the IC50 (pIC50) was < 4.00.

In the case of `Cc1[nH]c(/C=C2\C(=O)Nc3ccc(S(=O)(=O)N(C)C)cc32)c(C)c1C(=O)NCCN1CCCC1`, the negative-log IC50 (pIC50) is < 4.00. On to `Cc1[nH]c(/C=C2\C(=O)Nc3ccc(-c4ccccc4)cc32)c(C)c1C(=O)NCCCn1ccnc1`, for which the negative logarithm of the IC50 (pIC50) was < 4.00. Regarding `CCN(CC)CCCNC(=O)c1c(C)[nH]c(/C=C2\C(=O)Nc3cc(-c4ccccc4)ccc32)c1C`, the negative logarithm of the IC50 (pIC50) is < 4.00. Turning to `Cc1[nH]c(/C=C2\C(=O)Nc3cc(-c4ccccc4)ccc32)c(C)c1C(=O)NCCN(C)C`, the pIC50 was < 4.00.

As to `COc1ccccc1-c1ccc2c(c1)NC(=O)/C2=C\c1[nH]c(C)c(C(=O)NCCN2CCCC2)c1-c1ccccc1`, the negative-log IC50 (pIC50) is < 4.00.

On to `CCN(CC)CCCNC(=O)c1[nH]c(/C=C2\C(=O)Nc3cc(OC)ccc32)cc1C`, for which the negative-log IC50 (pIC50) is < 4.00. On to `COc1ccccc1-c1ccc2c(c1)NC(=O)/C2=C\c1[nH]c(C)c(C(=O)NCCN(C)C)c1-c1ccccc1`, for which the pIC50 was < 4.00. As for `Cc1c(C(=O)NCCCN2CCOCC2)[nH]c(/C=C2\C(=O)Nc3ccc(Br)cc32)c1C(=O)c1ccccc1`, the negative-log IC50 (pIC50) was < 4.00.

With `CCOC(=O)CNC(=O)c1c[nH]c(/C=C2\C(=O)Nc3ccc(S(=O)(=O)NC)c(C)c32)c1C`, the pIC50 is < 4.00. In the case of `CCN(CC)CCNC(=O)c1c(C)[nH]c(/C=C2\C(=O)Nc3cc(-c4cc(Cl)cc(Cl)c4)ccc32)c1C`, the negative-log IC50 (pIC50) was < 4.00. Take `CCN(CC)CCCNC(=O)c1c(C)[nH]c(/C=C2\C(=O)Nc3cccc(C(=O)Nc4ccc(OC)c(Cl)c4)c32)c1C`: the pIC50 is < 4.00. Consider `CNS(=O)(=O)c1ccc2c(c1)/C(=C/c1[nH]cc(C(=O)O)c1C)C(=O)N2`, for which the negative logarithm of the IC50 (pIC50) is < 4.00.

For `CCOC(=O)CNC(=O)c1c[nH]c(/C=C2\C(=O)Nc3ccc(S(=O)(=O)NC)cc32)c1C`, the pIC50 is < 4.00.

Consider `Cc1[nH]c(/C=C2\C(=O)Nc3ccc(Cl)cc32)c(C)c1C(=O)NCCN(C)C`, for which the pIC50 was < 4.00. Turning to `CCN(CC)CCNC(=O)c1c(C)[nH]c(/C=C2\C(=O)Nc3ccc(S(=O)(=O)N(C)C)cc32)c1C`, the pIC50 is < 4.00. For the compound `CCN(CC)CCNC(=O)c1c(C(C)C)[nH]c(/C=C2\C(=O)Nc3ccc(Br)cc32)c1C(C)C`, the pIC50 is < 4.00.

A further assay addresses EGFR (murine) (UniProt P00533).
Experiment: not given
As to conditions: nih3t3/c7.
As for `COC(=O)c1cc(C)c(/C=C2\C(=O)Nc3ccccc32)[nH]1`, the pIC50 is < 4.00. Same read-out and setting: the same measure for `Cc1[nH]c(/C=C2\C(=O)Nc3ccc(Br)cc32)c(C)c1C(=O)NCCCn1ccnc1`: < 4.00; for `Cc1[nH]c(/C=C2\C(=O)Nc3cc(-c4ccccc4)ccc32)c(C)c1C(=O)NCCN1CCCC1`: < 4.00; for `CCN(CC)CCNC(=O)c1c(C)[nH]c(/C=C2\C(=O)Nc3cc(-c4ccccc4)ccc32)c1C`: < 4.00. In the case of `Cc1cc(C(=O)O)[nH]c1/C=C1\C(=O)Nc2ccc(Cl)cc21`, the pIC50 is < 4.00. As to `CCN(CC)CCN(C)C(=O)c1ccc(/C=C2\C(=O)Nc3cc(-c4ccccc4)ccc32)[nH]1`, the negative logarithm of the IC50 (pIC50) is < 4.00. In the case of `Cc1[nH]c(/C=C2\C(=O)Nc3cc(-c4cccnc4)ccc32)c(C)c1C(=O)NCCN1CCCC1`, the negative-log IC50 (pIC50) is < 4.00.

`Cc1[nH]c(/C=C2\C(=O)Nc3ccc(-c4ccccc4)cc32)c(C)c1C(=O)NCCCn1ccnc1`: the pIC50 was < 4.00.

As to `CCOC(=O)c1c(C)[nH]c(/C=C2\C(=O)Nc3ccc(Br)cc32)c1-c1ccccc1`, the pIC50 is < 4.00. Take `Cc1cc(C(=O)O)[nH]c1/C=C1\C(=O)N(C)c2ccccc21`: the pIC50 was < 4.00. On to `CCOC(=O)c1cc(C)c(/C=C2\C(=O)Nc3ccc(Cl)cc32)[nH]1`, for which the negative-log IC50 (pIC50) is < 4.00.

Take `CCN(CC)CCNC(=O)c1c(C)[nH]c(/C=C2\C(=O)Nc3cc(-c4cc(Cl)cc(Cl)c4)ccc32)c1C`: the pIC50 was < 4.00.

In the case of `CCN(CC)CCNC(=O)c1ccc(/C=C2\C(=O)Nc3cc(-c4ccccc4)ccc32)[nH]1`, the negative-log IC50 (pIC50) was < 4.00. For `Cc1[nH]c(/C=C2\C(=O)Nc3ccc(Br)cc32)c(C)c1C(=O)NCCN1CCCC1`, the negative logarithm of the IC50 (pIC50) was < 4.00. On to `Cc1[nH]c(/C=C2\C(=O)Nc3cc(-c4ccccc4)ccc32)c(C)c1C(=O)NCCCn1ccnc1`, for which the pIC50 is < 4.00. On the same count and under the same terms, the same measure for `Cc1cc(C(=O)O)[nH]c1/C=C1\C(=O)Nc2ccccc21`: < 4.00; for `CCN(CC)CCNC(=O)c1c(C)[nH]c(/C=C2\C(=O)Nc3cc(-c4cccnc4)ccc32)c1C`: < 4.00.

The values are drawn from the Kinase Knowledgebase extract (Sharma et al. 2016).
